The target of assay [1] is T1, neutral endopeptidase of cultivated human fibroblast (Homo sapiens, UniProt P08473).
T1 construct: followed by ultrasonic pulverization, whereby an enzyme solution was obtained; host or cells: normal human fibroblasts, Triton X-100 lysate after sonication
The experiment in a line: Inhibition test on neutral endopeptidase activity of cultivated human fibroblast. The settings on record: enzyme solution from human fibroblast, substrate glutaryl-Ala-Ala-Phe-4-methoxy-2-naphthylamine. Format: biochemical. The text has this: Test 1 Inhibition Test on Neutral Endopeptidase Activity of Cultivated Human Fibroblast
Normal human fibroblast commercially available from Dainippon Pharmaceutical Co., Ltd. was subcultured on a DME medium containing 10% bovine fatal serum and provided for the present test. The cells peeled by a rubber-policeman from a Petri dish were floated in a phosphate-buffered physiological saline, collected by a low-velocity centrifuge, and washed three times with the same physiological saline. The cells were floated in a 0.1% Triton X-100/0.2M tris-HCl buffer (pH 8.0), followed by ultrasonic pulverization, whereby an enzyme solution was obtained.
The enzyme activity was measured as follows: To 100 μL of an MES buffer (100 mM, pH 6.5) added with sodium chloride (300 mM), were added 2 μL of the enzyme solution, 1 μL of a solution of the invention compound and, as a substrate for the measurement of enzyme activity, 1 μL of 20 mM glutalyl-Ala-Ala-Phe-4-methoxy-2-naphthylamine, followed by reaction at 37° C. for 1 hour. Phosphoramldon was added to the reaction mixture to give its final concentration of 0.4 μM and then, the reaction was terminated. Aminopeptidase M having a final concentration of 20 mU was added to the reaction mixture and the resulting mixture were reacted at 37° C. for 15 minutes. The amount of the resulting 4-methoxy-2-naphthylamine was determined by measuring the fluorescent strength at excited wavelength of 340 nm and fluorescent wavelength of 425 nm by a fluorospectrophotometer and % inhibition of the compound against enzyme activity was determined.

The subject of a further assay is C3H mice. The experiment in a line: Hair growth test (2) using mice. Format: in vivo. The protocol:
(1) Preparation of a Test Sample
Each of Compounds 1 to 3 and 7 was dissolved in a 50% ethanol solution, whereby a 1 mM solution was prepared.
Papain powder (produced by CALBIOCHEM-NOVABIOCHEM CORPORATION) was dissolved in purified water to prepare a 2% aqueous solution, followed by the addition of an equal amount of ethanol to prepare a 1% ethanol solution.
Trypsin powder (produced by Sigma Aldrich Corporation) was dissolved in Hanks' Balanced Salt Solution (produced by Gibco BRL) having 1 mM EDTA-4Na dissolved therein, followed by the addition of an equal amount of ethanol to prepare a 1% ethanol solution.
Chymotrypsin powder (produced by Sigma Aldrich Corporation) was treated in a manner similar to that employed for trypsin, whereby a 1% ethanol solution was prepared.
The back of 6-week-old C3H mice (each group consisting of 5 mice) was, shaved by 2×4 cm^2 by electric hair clippers or an electric shaver so as not to injure its skin. The sample was applied in an amount of 100 μL/once to the shaved portion twice a day for 4 weeks. To a control group, only a solvent was applied. Three weeks after depilation, the picture of the shaved portion was taken at a fixed magnification in order to observe the regrowth hair and the area of the hair regrowth (area of regrowth hair/shaved area) was compared with that of the control group by using an image analyzer.

Setting [2] is: compound 1 mM alone (Solvent column), 100 μL twice a day on shaved back.
[3] abbreviates: compound 1 mM combined with Papain 1%, 100 μL twice a day.
Setting [4] is: proteolytic enzyme 1% alone (Solvent), 100 μL twice a day.

Peptide text beside a SMILES is read from it.

T1 sequence (P08473 whole entry): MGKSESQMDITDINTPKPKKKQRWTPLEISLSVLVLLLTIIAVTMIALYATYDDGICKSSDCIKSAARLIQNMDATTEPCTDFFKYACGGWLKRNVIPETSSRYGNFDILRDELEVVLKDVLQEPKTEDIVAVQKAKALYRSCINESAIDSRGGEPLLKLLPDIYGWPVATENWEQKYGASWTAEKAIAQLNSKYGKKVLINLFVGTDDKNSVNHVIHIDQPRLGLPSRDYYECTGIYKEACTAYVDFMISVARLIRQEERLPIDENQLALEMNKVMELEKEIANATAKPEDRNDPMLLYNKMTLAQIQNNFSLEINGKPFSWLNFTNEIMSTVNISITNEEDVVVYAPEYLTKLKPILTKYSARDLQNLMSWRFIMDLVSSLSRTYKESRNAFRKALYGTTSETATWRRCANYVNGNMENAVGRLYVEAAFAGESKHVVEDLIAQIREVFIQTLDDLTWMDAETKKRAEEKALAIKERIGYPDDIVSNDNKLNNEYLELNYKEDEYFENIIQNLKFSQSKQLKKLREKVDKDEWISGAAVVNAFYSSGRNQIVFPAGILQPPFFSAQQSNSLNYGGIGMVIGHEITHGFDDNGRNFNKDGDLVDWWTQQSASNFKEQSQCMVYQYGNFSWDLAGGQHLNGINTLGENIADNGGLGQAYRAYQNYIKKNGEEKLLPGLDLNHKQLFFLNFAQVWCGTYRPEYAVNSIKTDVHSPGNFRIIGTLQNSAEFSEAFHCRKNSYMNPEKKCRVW

For `CCOC(=O)CNC(=O)CC(=O)OCC` [Compound 8], in assay [1] (concentration 1 mM), the inhibition (usually the drop in the measured response relative to a control, in per cent) at 1000 µM was 23.8 ± 2.7%.
With `CCOC(=O)CNC(=O)C(Cc1ccc(-c2ccccc2)cc1)C(=O)OCC` (centres unmarked) [Compound 11], the inhibition at 100 µM in assay [1] (concentration 0.1 mM) worked out at 85.7 ± 2.2%.
Asp-Phe: the % inhibition (usually the percentage by which the read-out fell short of the control) in assay [1] (concentration 1 mM) was 45.7%.
Consider `CC(C)CC(NP(=O)(O)CCc1ccccc1)C(=O)NC(Cc1c[nH]c2ccccc12)C(=O)O` (centres unmarked) [Compound 2], for which the figures for the “Hair growth inhibition 3 weeks after depilation” value (“Hair growth inhibition 3 weeks” below) in the assay on C3H mice (setting [2]) and with C3H mice (setting [3]) were 59.1 and 80.3, respectively.
Turning to Phe-Leu, the “% inhibition” value in assay [1] (concentration 1 mM) was determined as 72.9%.
Consider `COC(=O)[C@H](Cc1ccccc1)NC(=O)[C@@H](N)CC(=O)O` [Aspartame, Asp-Phe-OMe (aspartame)] (H-Asp-Phe-OMe), for which 1000 µM produced 30.2% inhibition in assay [1] (concentration 1 mM).
Turning to Phe-Gly, the “% inhibition” value in assay [1] (concentration 1 mM) is reported as 49.4%.
Consider Phe-Phe, for which, in assay [1] (concentration 1 mM), the “% inhibition” value is reported as 85.7%.
On to `O=C(O)CCNC(=O)C(CS)Cc1ccccc1` (centres unmarked) [Compound 7], for which the “Hair growth inhibition 3 weeks” value in the assay with C3H mice (setting [2]) was found to be 59.7; in the assay with C3H mice (setting [3]), 77.9.
Regarding Phe-Asp, the “% inhibition” value in assay [1] (concentration 1 mM) stood at 85.4%.
For Chymotrypsin, in the assay with C3H mice (setting [4]), the “Hair growth inhibition 3 weeks” value stood at 20.1.
Molecule `O=C(O)CC(=O)N[C@@H](Cc1ccccc1)C(=O)O` [Compound 13] came in with an inhibition at 1000 µM in assay [1] (concentration 1 mM) of 49.3 ± 1.2%.
Regarding Trypsin, the “Hair growth inhibition 3 weeks” value in the assay on C3H mice (setting [4]) was determined as 25.6.
In assay [1] (concentration 0.1 mM), `O=C(O)CNC(=O)C(Cc1ccccc1)C(=O)O` (centres unmarked) [Compound 10] returned an inhibition at 100 µM of 91.2 ± 3.7%.
In the case of `O=C(O)CCNC(=O)C(Cc1ccccc1)C(=O)O` (centres unmarked) [Compound 12], in assay [1] (concentration 0.1 mM), at 100 µM the inhibition was 69.5 ± 4.3%.
For the molecule Phe-β-Ala, the “% inhibition” value in assay [1] (concentration 0.1 mM) is 92.6%.
The molecule `CCOC(=O)CNC(=O)C(Cc1ccccc1)C(=O)OCC` (centres unmarked) [Compound 9] gave an inhibition at 100 µM in assay [1] (concentration 0.1 mM) of 74.5 ± 9.3%.

B1: Papain: proteolytic enzyme, papain powder (CALBIOCHEM-NOVABIOCHEM), 1% ethanol solution (protein, UniProt P00784 134-345, looked up)
Papain: IPEYVDWRQKGAVTPVKNQGSCGSCWAFSAVVTIEGIIKIRTGNLNEYSEQELLDCDRRSYGCNGGYPWSALQLVAQYGIHYRNTYPYEGVQRYCRSREKGPYAAKTDGVRQVQPYNEGALLYSIANQPVSVVLEAAGKDFQLYRGGIFVGPCGNKVDHAVAAVGYGPNYILIKNSWGTGWGENGYIRIKRGTGNSYGVCGLYTSSFYPVKN
B1: in the assay with C3H mice (setting [4]), the “Hair growth inhibition 3 weeks” value amounted to 17.3.
